According to patent US12116388B2, “Amylin receptor agonists” (Novo Nordisk A/S, priority 2022, dated 2024):
Starred links: 1 amine or outer side, 2 acyl side, 3 side chain; linkers in the order of their positions; H or OH if unused. Residues, ends and D or L forms follow the SMILES beside them. *: point of attachment. C18 diacid = O=C(O)CCCCCCCCCCCCCCCCC(=O)*; γGlu = O=C(O)[C@H](CCC(=O)[*:2])N[*:1]

Assays:
[1] = target: T1, human amylin receptor (hAMYR3) (Homo sapiens, UniProt O60896+P30988); assay: Human amylin receptor (hAMYR3) in vitro potency assay, CRE-luciferase reporter in BHK cells; format: cell-based; conditions: BHK hAMYR3/CRE-Luc cells, 3 hours incubation, assay buffer with 1% ovalbumin
T1 construct: host or cells: BHK (Baby Hamster Kidney), Hollex-1 cell line further transfected with RAMP3
T1 sequence (P30988 25-474): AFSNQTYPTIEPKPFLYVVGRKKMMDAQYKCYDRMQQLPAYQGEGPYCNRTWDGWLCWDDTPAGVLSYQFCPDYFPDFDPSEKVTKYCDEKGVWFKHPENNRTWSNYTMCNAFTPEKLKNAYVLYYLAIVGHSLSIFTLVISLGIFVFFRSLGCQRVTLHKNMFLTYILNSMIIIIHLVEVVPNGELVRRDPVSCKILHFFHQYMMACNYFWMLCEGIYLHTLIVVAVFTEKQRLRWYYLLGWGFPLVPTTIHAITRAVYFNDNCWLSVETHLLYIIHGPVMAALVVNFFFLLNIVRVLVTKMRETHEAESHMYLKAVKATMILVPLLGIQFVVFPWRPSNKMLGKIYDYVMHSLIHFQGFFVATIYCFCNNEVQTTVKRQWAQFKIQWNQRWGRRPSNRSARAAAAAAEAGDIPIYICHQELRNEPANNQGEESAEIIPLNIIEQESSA
T1 sequence (O60896 24-148): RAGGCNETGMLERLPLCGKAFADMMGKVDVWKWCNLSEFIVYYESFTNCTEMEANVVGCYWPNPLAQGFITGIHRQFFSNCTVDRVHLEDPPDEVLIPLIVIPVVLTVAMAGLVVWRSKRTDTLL
Summary of the method: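 Luminescence from a CRE-driven luciferase reporter reflects cAMP-mediated receptor activation. Peptides were serially diluted (7 concentrations, 7-fold steps, typically starting near 10 nM) in buffer with 1% ovalbumin and applied for 3 h at 37 °C to BHK cells co-expressing calcitonin receptor (a) and RAMP3.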

[2] = Oral pharmacokinetic profiles in Beagle dogs (SNAC tablets); format: in vivo; conditions: oral tablet: 3 mg compound, 300 mg SNAC, 7.7 mg magnesium stearate; for half-life: male, dog, plasma, read-out: T½ (converted)
Summary of the method: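 Male Beagle dogs, fasted overnight, received an oral immediate-release tablet of 3 mg compound with 300 mg SNAC, 10 min after ~3.2 nmol/kg subcutaneous glucagon. EDTA plasma sampled up to 288 h post-dose; concentrations measured by ethanol protein precipitation and LC-MS for pharmacokinetic parameters.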

For `CC[C@H](C)[C@H](NC(=O)[C@H](C)NC(=O)CNC(=O)[C@H](Cc1ccccc1)NC(=O)[C@@H]1CCCN1C(=O)[C@H](CC(=O)O)NC(=O)[C@H](CO)NC(=O)[C@H](CO)NC(=O)[C@H](Cc1c[nH]cn1)NC(=O)[C@H](Cc1c[nH]cn1)NC(=O)[C@H](CC(C)C)NC(=O)[C@H](Cc1ccccc1)NC(=O)[C@H](CCC(=O)O)NC(=O)[C@H](C)NC(=O)[C@H](CC(C)C)NC(=O)[C@H](CCCNC(=N)N)NC(=O)[C@H](CCC(N)=O)NC(=O)[C@@H](NC(=O)[C@H](CCC(N)=O)NC(=O)[C@H](C)NC(=O)[C@@H](NC(=O)[C@H](CO)NC(=O)[C@H](CC(C)C)NC(=O)[C@H](CCC(N)=O)NC(=O)[C@H](CO)NC(=O)[C@H](C)NC(=O)CC[C@H](NC(=O)CCCCCCCCCCCCCCCCC(=O)O)C(=O)O)[C@@H](C)O)[C@@H](C)O)C(=O)N1CCC[C@H]1C(=O)N[C@@H](CO)C(=O)N[C@@H](CO)C(=O)N[C@H](C(=O)N[C@@H](CC(=O)O)C(=O)N[C@H](C(=O)NCC(=O)N1CCC[C@H]1C(=O)N[C@@H](CC(=O)O)C(=O)N[C@H](C(=O)N1CCC[C@H]1C(N)=O)[C@@H](C)O)C(C)C)[C@@H](C)O` [Compound 24] ({C18 diacid-γGlu}-ASQLSTAQTQRLAEFLHHSSDPFGAIPSSTDVGPDTP-NH2), the EC50 [1] was 1.49 pM, the half-life [2] was 120 h and the “AUC/D” value [2] was 31.21 kg·h/L. For the same compound, the “Cmax/D” value [2] was 0.36 kg/L.
In the case of `CC[C@H](C)[C@H](NC(=O)[C@H](C)NC(=O)CNC(=O)[C@H](Cc1ccccc1)NC(=O)[C@@H]1CCCN1C(=O)[C@H](CC(=O)O)NC(=O)[C@H](CO)NC(=O)[C@H](CO)NC(=O)[C@H](Cc1c[nH]cn1)NC(=O)[C@H](Cc1c[nH]cn1)NC(=O)[C@H](CC(C)C)NC(=O)[C@H](Cc1ccccc1)NC(=O)[C@H](CCC(=O)O)NC(=O)[C@H](C)NC(=O)[C@H](CC(C)C)NC(=O)[C@H](CCCNC(=N)N)NC(=O)[C@H](C)NC(=O)[C@@H](NC(=O)[C@H](CCC(N)=O)NC(=O)[C@H](C)NC(=O)[C@@H](NC(=O)[C@H](CO)NC(=O)[C@H](CC(C)C)NC(=O)[C@H](Cc1c[nH]cn1)NC(=O)[C@H](CO)NC(=O)[C@H](C)NC(=O)CC[C@H](NC(=O)CCCCCCCCCCCCCCCCC(=O)O)C(=O)O)[C@@H](C)O)[C@@H](C)O)C(=O)N1CCC[C@H]1C(=O)N[C@@H](CO)C(=O)N[C@@H](CO)C(=O)N[C@H](C(=O)N[C@@H](CC(=O)O)C(=O)N[C@H](C(=O)NCC(=O)N1CCC[C@H]1C(=O)N[C@@H](CC(=O)O)C(=O)N[C@H](C(=O)N1CCC[C@H]1C(N)=O)[C@@H](C)O)C(C)C)[C@@H](C)O` [Compound 25, N^1-[(4S)-4-carboxy-4-(17-carboxyheptadecanoylamino)butanoyl]-[Ala1,Ser2,His3,Leu4,Ser5,Ala7,Gln8,Ala10,Glu14,His17,Asp21,Pro22,Pro27,Asp31,Pro34,Asp35,Pro37]-human amylin] ({C18 diacid-γGlu}-ASHLSTAQTARLAEFLHHSSDPFGAIPSSTDVGPDTP-NH2), the EC50 [1] is reported as 1.27 pM, the half-life [2] is reported as 152 h and the “AUC/D” value [2] is reported as 24.15 kg·h/L. For the same compound, the “Cmax/D” value [2] was 0.34 kg/L.
